# Literature values, collected in patent US20250041383A1, “MODIFIED CAVEOLIN-1 PEPTIDES FOR THE TREATMENT OF POST-ACUTE COVID-19” (priority 2021, published 2025).
# Ends that are not written are not given here.
# Test system: lung
# Conditions: treatment with the CSP 20-mer; literature
sequence,measurement,value
"DGIWKASFTTFTVTKYWFYR (not fully specified) [CSP 20-mer, the full-length CSD of caveolin-1, amino acids 82-101]",collagen deposition,reduced
same,expression of profibrogenic signaling molecules,down-regulation
same,lung aSMA,reduced
same,lung epithelial apoptosis,reduced
